These results are taken from ChEMBL document CHEMBL4270502, “From bench (laboratory) to bed (hospital/home): How to explore effective natural and synthetic PAK1-blockers/longevity-promoters for cancer therapy” (Eur J Med Chem, 2017).

Bounds are passed on as bounds.

As a reminder, the IC50 is the concentration at which inhibition is half-maximal. As usually defined, the ILS is how much longer treated animals lived than controls. Low readings indicate little gain in survival, high ones much gain in survival.

Series [1] concerns A549. The experiment in a line: Growth inhibition of human A549 cells. The class given is functional, cell-based.
The test system of series [2] is Caenorhabditis elegans. Nature of the series: Increase in lifespan of Caenorhabditis elegans N2 var. Bristol at 40 uM. The class given is functional.
Series [3] has as its system Caenorhabditis elegans. The experiment in a line: Increase in lifespan of Caenorhabditis elegans age-1(hx546) at 40 uM. The format is functional.
Series [4] addresses T1, Serine/threonine-protein kinase PAK 1 (Homo sapiens, UniProt Q13153). Nature of the series: Inhibition of HA-PAK1 (unknown origin) using histone H4 substrate and [gamma-32P] ATP by autoradiography.
Series [5] has as its target T2, Serine/threonine-protein kinase PAK 1 (Mus musculus, UniProt O88643). The experiment in a line: Inhibition of PAK1 in v-Ha-RAS-transformed mouse NIH/3T3 cells incubated for 1 hr by immunoblot analysis.
The target in series [6] is Mitogen-activated protein kinase kinase kinase 11 (Homo sapiens, UniProt Q16584). Nature of the series: Inhibition of flag-tagged MLK3 (unknown origin) expressed in human HeLa cells assessed as reduction in enzyme autophosphorylation incubated for 20 mins by immunoprecipitatation. The class given is cell-based.
The subject of series [7] is A549. The experiment in a line: Growth inhibition of RAS-transformed human A549 cells. The format is functional, cell-based.
In series [8] the test system is Caenorhabditis elegans. The experiment in a line: Increase in lifespan of Caenorhabditis elegans. The class given is functional.
The target of series [9] is T1, Serine/threonine-protein kinase PAK 1. Nature of the series: Inhibition of PAK1 in human MCF7 cells transfected with constitutively active NH2-terminally truncated C1199 Tiam1 construct. The class given is cell-based.
The target in series [10] is Serine/threonine-protein kinase PAK 3 (Homo sapiens, UniProt O75914). The experiment in a line: Inhibition of GST-tagged PAK3 (unknown origin) expressed in Escherichia coli using peptide PC9 substrate.
The next series addresses Protein kinase C (PKC). The experiment in a line: Inhibition of rat brain PKC using […] derived peptide substrate.
For series [11], the target named is T1, Serine/threonine-protein kinase PAK 1. Nature of the series: Inhibition of recombinant human PAK1 by ADP-Glo kinase assay. For orientation: ADP-Glo turns the ADP formed in a reaction into a luminescent signal.
The target is the same in series [12]. Nature of the series: Inhibition of PAK1 (unknown origin).
The target is the same in series [13]. Nature of the series: Inhibition of PAK1 (unknown origin) by cell culture based assay.
A short description of series [14]: Growth stimulation of HFDPC assessed as increase in cell viability incubated for 3 days by MTT assay. The class given is functional, Homo sapiens. A general note: Formazan colour is commonly taken as a measure of viable cells.
A short description of series [15]: Cytotoxicity in human M8 cells by MTT assay. The format is functional, cell-based.
Series [16] can be described thus: Potency index, ratio of IC50 for caffeic acid to IC50 for test compound for cytotoxicity in human M8 cells by MTT assay. The format is functional.
In series [17] the test system is Caenorhabditis elegans. Nature of the series: Increase in lifespan of Caenorhabditis elegans N2 at 100 uM. The class given is functional.
Another series deals with Mus musculus. The experiment in a line: Increase in lifespan of C57BL/6J mouse at 2 mg/kg/day dosed in drinking water. The class given is functional. The settings on record: feed or water.
Series [18] in a line: Stability assessed as shelf life at 4 degC. The class given is physicochemical.
The target of series [19] is T2, Serine/threonine-protein kinase PAK 1. Nature of the series: Inhibition of PAK1 in v-Ha-RAS-transformed mouse NIH/3T3 cells incubated for 48 hrs by immunoblot analysis. (A western blot detects proteins with antibodies after separation by electrophoresis.)
Series [20] deals with T1, Serine/threonine-protein kinase PAK 1. The experiment in a line: Inhibition of PAK1 in estrogen-stimulated human MCF7 cells incubated for 48 hrs by immunoblot analysis. The format is cell-based.
Another series relates to PC-3. The experiment in a line: Antitumor activity against human PC3 cells wenografted in mouse assessed as inhibition of tumor growth at 3 mg/kg/day. The format is functional. The settings on record: read-out: TGI.
The target in series [21] is T1, Serine/threonine-protein kinase PAK 1. The experiment in a line: Inhibition of PAK1 in human A549 cells. The format is cell-based.
The subject of series [22] is Caenorhabditis elegans. The experiment in a line: Increase in lifespan of Caenorhabditis elegans N2 CGCb under 2 mM H2O2-induced oxidative stress conditions at 1 to 50 mg/L. The class given is functional.

T1 sequence (Q13153 whole entry): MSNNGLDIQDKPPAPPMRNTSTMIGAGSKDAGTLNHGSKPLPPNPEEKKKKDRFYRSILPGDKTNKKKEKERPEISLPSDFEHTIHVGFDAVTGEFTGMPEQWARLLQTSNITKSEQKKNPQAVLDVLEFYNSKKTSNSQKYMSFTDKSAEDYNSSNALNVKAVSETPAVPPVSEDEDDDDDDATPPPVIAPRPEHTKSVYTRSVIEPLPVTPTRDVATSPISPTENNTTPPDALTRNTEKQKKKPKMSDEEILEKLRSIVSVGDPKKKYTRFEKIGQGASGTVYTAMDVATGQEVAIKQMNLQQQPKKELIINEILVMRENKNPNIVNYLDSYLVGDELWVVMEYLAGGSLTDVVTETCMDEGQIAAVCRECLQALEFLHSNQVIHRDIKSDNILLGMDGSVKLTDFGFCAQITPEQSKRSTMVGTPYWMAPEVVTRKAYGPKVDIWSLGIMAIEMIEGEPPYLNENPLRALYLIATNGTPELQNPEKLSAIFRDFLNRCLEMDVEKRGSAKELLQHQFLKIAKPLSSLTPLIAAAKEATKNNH
T2 sequence (O88643 whole entry): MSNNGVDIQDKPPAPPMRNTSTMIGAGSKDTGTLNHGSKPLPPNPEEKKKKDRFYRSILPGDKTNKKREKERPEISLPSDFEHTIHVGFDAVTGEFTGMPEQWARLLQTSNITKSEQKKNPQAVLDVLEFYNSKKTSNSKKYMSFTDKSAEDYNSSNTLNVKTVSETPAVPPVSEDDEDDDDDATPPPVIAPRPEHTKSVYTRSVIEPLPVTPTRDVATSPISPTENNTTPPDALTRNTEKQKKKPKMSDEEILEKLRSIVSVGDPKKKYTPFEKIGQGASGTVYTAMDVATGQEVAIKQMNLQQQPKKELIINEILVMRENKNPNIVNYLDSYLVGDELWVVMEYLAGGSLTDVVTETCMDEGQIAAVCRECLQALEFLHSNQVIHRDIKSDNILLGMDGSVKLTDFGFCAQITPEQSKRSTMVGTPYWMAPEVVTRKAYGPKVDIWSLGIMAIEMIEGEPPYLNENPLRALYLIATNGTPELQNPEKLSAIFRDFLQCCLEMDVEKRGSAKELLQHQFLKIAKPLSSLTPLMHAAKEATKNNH
Chain of Mitogen-activated protein kinase kinase kinase 11 (Q16584 whole entry): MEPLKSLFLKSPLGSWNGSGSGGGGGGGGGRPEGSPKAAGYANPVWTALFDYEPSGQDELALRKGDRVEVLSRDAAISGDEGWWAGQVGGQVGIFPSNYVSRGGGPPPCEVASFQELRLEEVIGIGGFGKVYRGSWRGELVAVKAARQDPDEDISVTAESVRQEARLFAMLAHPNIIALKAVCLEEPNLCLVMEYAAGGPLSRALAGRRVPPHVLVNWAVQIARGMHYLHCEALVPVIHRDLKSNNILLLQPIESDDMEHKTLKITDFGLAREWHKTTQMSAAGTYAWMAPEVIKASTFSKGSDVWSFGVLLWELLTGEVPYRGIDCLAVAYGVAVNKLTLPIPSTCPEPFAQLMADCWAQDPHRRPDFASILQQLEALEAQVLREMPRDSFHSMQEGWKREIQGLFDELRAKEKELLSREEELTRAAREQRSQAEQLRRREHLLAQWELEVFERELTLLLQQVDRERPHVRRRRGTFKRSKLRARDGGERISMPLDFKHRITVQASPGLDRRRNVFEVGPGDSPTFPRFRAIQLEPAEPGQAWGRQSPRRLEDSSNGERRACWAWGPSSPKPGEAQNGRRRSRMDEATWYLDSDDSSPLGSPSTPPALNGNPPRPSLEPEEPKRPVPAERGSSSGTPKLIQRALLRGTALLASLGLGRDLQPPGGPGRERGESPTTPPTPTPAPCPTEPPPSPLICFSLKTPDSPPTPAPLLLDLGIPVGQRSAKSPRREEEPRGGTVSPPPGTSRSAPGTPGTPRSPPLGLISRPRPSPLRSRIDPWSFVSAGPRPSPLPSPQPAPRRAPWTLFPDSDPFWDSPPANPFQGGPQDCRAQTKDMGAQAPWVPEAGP
Chain of Serine/threonine-protein kinase PAK 3 (O75914 whole entry): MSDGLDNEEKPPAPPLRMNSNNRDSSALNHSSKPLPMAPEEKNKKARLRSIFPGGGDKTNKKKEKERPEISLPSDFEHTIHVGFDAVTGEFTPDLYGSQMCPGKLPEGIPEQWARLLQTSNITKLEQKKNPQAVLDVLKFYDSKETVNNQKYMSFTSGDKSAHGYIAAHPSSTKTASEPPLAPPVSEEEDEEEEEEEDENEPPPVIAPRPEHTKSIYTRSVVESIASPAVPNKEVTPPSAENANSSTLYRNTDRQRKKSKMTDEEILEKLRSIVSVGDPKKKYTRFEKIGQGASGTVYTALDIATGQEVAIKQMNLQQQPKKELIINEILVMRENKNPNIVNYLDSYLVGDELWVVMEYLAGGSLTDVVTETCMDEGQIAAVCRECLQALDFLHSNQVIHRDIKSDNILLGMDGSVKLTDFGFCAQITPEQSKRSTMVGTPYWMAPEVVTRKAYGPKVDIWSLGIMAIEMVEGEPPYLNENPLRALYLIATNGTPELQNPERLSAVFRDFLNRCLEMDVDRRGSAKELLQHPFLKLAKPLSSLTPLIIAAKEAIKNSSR

Turning to `CC1=C(/C=C/C(C)=C/C=C/C(C)=C/C=C/C=C(C)/C=C/C=C(C)/C=C/C2=C(C)C(=O)C(O)CC2(C)C)C(C)(C)CC(O)C1=O` (stereo not given), 40 µM corresponded to half-maximal inhibition with A549 [1] (IC50). Moreover, the Activity in the series on Caenorhabditis elegans [2] and in the series with Caenorhabditis elegans [3] was 16 - 30% throughout.

Regarding `CCCCCC(=O)c1c(O)cc(OC)c(Cl)c1O`, the IC50 with A549 [1] is 2 to 3 µM; in series [4] it was 2.5 µM.

With `CCSCc1ccc2c(c1)c1c3c(c4c5cc(CSCC)ccc5n5c4c1n2C1C[C@](O)(C(=O)OC)[C@]5(C)O1)CNC3=O`, the IC50 in the series on A549 [1] worked out at 1 µM; in series [5], 1 µM; in series [6] it was 0.02 µM; in the series on A549 [7], 1 µM. As to `Cc1ccc(-c2nn(C(C)(C)C)c3ncnc(N)c23)cc1`, the concentration for half-maximal inhibition (IC50) in the series with A549 [1] stood at 0.01 µM. `CC(C)NC(=O)N1CC[C@H](NC2=Nc3cc(F)ccc3N(CC(F)F)c3ccc(Cl)cc32)C1`: the IC50 in the series with A549 [1] stood at 0.25 µM. For `CNc1ncc2cc(-c3ccc(-c4cccc(C)n4)cc3Cl)c(=O)n(C[C@H]3OC[C@H](N)CO3)c2n1`, the IC50 in the series with A549 [1] was over 1 µM.

As to `CCS(=O)(=O)c1cc(Nc2ncc(F)c(N(Cc3ccccc3C#N)c3cc(CO)ccc3C)n2)ccc1N1CCN(C)CC1`, in the series on A549 [1], the IC50 was determined as 0.06 µM. On to `COc1ccccc1-n1cc(COC(=O)C2CCn3c(C(=O)c4ccccc4)ccc32)nn1` (stereo not given), for which the ILS in the series with Caenorhabditis elegans [8] amounted to 30%. Regarding `Cc1cc(C)cc(NC(=N)Nc2ccccc2C(F)(F)F)c1`, the IC50 in series [9] stood at 4 µM. For `CN[C@@H]1C[C@H]2O[C@@](C)([C@@H]1OC)n1c3ccc(O)cc3c3c4c(c5c6cc(O)ccc6n2c5c31)C(=O)NC4`, the IC50 (in [10]; on Protein kinase C (PKC)) was 0.001 µM throughout. `COc1ccccc1-n1cc(COC(=O)/C=C/c2ccc(O)c(O)c2)nn1` returned an IC50 with A549 [1] of 0.225 µM. Take `CC(=O)CCC=C(C)CCC=C(C)CCC=C(C)CCC=C(C)C`: the midpoint of inhibition in the series with A549 [1], the IC50, lay at 10 µM.

For the compound `CC(C)(C)c1cc(/C=C(\C#N)C(=S)NCCCCCCN)cc(C(C)(C)C)c1O`, in the series on A549 [1], the IC50 came out at 0.005 µM. As for `CO[C@@H]1[C@@H](O)[C@H](O[C@@H]2[C@@H](O)[C@H](O[C@H]3[C@H](O)[C@@H](O[C@@H]4OC[C@@H](O)[C@H](O)[C@H]4O)[C@H](O[C@H]4[C@H](O[C@H]5CC[C@]6(C)[C@@H]7CCC89C(=O)O[C@@](C)(CCCC(C)C)[C@H]8[C@@H](OC(C)=O)C[C@@]9(C)C7=CC[C@H]6C5(C)C)OC[C@@H](OS(=O)(=O)O)[C@@H]4O)O[C@@H]3C)OC[C@H]2O)O[C@H](CO)[C@H]1O` (stereo not given in full), the IC50 in the series on A549 [1] was 0.6 to 1.5 µM; in [11] it was 1 µM; with A549 [7] it was 1 µM.

The compound `COc1ccccc1-n1cc(COC(=O)[C@]23CC[C@@H](C)[C@H](C)[C@H]2C2=CC[C@@H]4[C@@]5(C)CC[C@H](O)C(C)(C)[C@@H]5CC[C@@]4(C)[C@]2(C)CC3)nn1` gave an IC50 in the series with A549 [1] of 0.1 µM.

On to `Oc1ccc2ccccc2c1SSc1c(O)ccc2ccccc12`, for which the IC50 in the series with A549 [1] turned out to be 30 µM; in series [12], 1 µM. Take `CC(C)=CCc1cc(/C=C/C(=O)O)cc(CC=C(C)C)c1O` [ARTEPILLIN]: the IC50 (in series [13]; in the series on A549 [1]) was 25 µM in each case. For the same compound, the ED in [14] was found to be 20 µM. For the compound `O=C(/C=C/c1ccc(O)c(O)c1)OCCc1ccccc1` [CAFFEIC ACID PHENETHYL ESTER], the IC50 (in [15]; in the series on A549 [1]) was 10 µM in each case. Moreover, in [16], the “Ratio IC50” value was 10. For the same compound, the Activity in the series on Caenorhabditis elegans [17] is recorded as 15%. For the compound `O=C(O)/C=C/c1ccc(O)c(O)c1` [CAFFEIC ACID], the IC50 in series [15] amounted to 100 µM. Turning to `CC(C)(O)/C=C/C(=O)[C@](C)(O)[C@H]1[C@H](O)C[C@@]2(C)[C@@H]3CC=C4[C@@H](C=C(O)C(=O)C4(C)C)[C@]3(C)C(=O)C[C@]12C` [CUCURBITACIN I], in the series with A549 [1], half-maximal inhibition (IC50) was put at 0.14 µM. `COc1cc(/C=C/C(=O)CC(=O)/C=C/c2ccc(O)c(OC)c2)ccc1O` [CURCUMIN] showed an IC50 in the series with A549 [1] of 23 µM. With `C[C@H](CCCCC(=O)O)O[C@@H]1O[C@@H](C)[C@H](O)C[C@H]1O` [DAUMONE], half-maximal inhibition in the series with A549 [1] (IC50) was put at 0.02 µM. Besides, the increase in life span (ILS) at 2 mg/kg/day in the series on Mus musculus came to 50%. With `COc1ccc2[nH]cc(CCNC(C)=O)c2c1` [MELATONIN], half-maximal inhibition in the series on A549 [1] (IC50) was put at 1300 µM. With `CC(C)[C@]12O[C@H]1[C@@H]1O[C@]13[C@]1(O[C@H]1C[C@H]1C4=C(CC[C@@]13C)C(=O)OC4)[C@@H]2OCOP(=O)([O-])[O-].[Na+].[Na+]` [MINNELIDE], the Stability in series [18] was 2 yr. The compound `COc1c(C)c2c(c(O)c1C/C=C(\C)CCC(=O)OCCN1CCOCC1)C(=O)OC2` [MYCOPHENOLATE MOFETIL] gave an IC50 with A549 [1] of 0.05 to 0.5 µM. On the same count and under the same terms, the same measure for `CC(C)=CCC/C(C)=C/Cc1c(O)cc2c(c1O)C(=O)C[C@@H](c1ccc(O)c(O)c1)O2` [NYMPHAEOL A]: 4 to 7 µM.

In the series with A549 [1], `CC(C)=CCC/C(C)=C/Cc1c([C@@H]2CC(=O)c3c(O)cc(O)cc3O2)ccc(O)c1O` [NYMPHAEOL B] yielded an IC50 of 4 to 7 µM. The compound `CC(C)=CCC/C(C)=C/Cc1c([C@@H]2CC(=O)c3c(cc(O)c(CC=C(C)C)c3O)O2)ccc(O)c1O` [NYMPHAEOL C] yielded a 50% inhibitory concentration (IC50) in the series on A549 [1] of 4 to 7 µM. For `Oc1ccc(/C=C/c2cc(O)cc(O)c2)cc1` [RESVERATROL], the IC50 in the series on A549 [1] turned out to be 30 µM; in series [11], 15 µM.

On to `C/C=C1\NC(=O)[C@H]2CSSCC/C=C/[C@H](CC(=O)N[C@H](C(C)C)C(=O)N2)OC(=O)[C@H](C(C)C)NC1=O` [ROMIDEPSIN], for which the IC50 in series [19] and in series [20] was under 0.001 µM in each case. `COCCn1c2c([n+](Cc3cnccn3)c1C)C(=O)c1ccccc1C2=O` [SEPANTRONIUM BROMIDE]: the IC50 in the series on A549 [1] stood at 0.0134 µM; in [21], 0.5 µM. For the same compound, in the series with PC-3, the inhibition in vivo at 3 mg/kg/day was over 50%. In turn, `CC(C)[C@]12O[C@H]1[C@@H]1O[C@]13[C@]1(O[C@H]1C[C@H]1C4=C(CC[C@@]13C)C(=O)OC4)[C@@H]2O` [TRIPTOLIDE] registered an IC50 with A549 [1] of 0.03 µM. The ILS in the series on Caenorhabditis elegans [8] and in the series on Caenorhabditis elegans [22] was 20% throughout. For the compound `CC(C)(C)c1cc(/C=C(\C#N)C(N)=S)cc(C(C)(C)C)c1O` [TYRPHOSTIN AG 879], the IC50 with A549 [1] was 0.005 µM.
